Experiments:
[1] = system: oral microorganisms; assay: Acid production inhibition in vitro (summary); type: cell-based; conditions: in words, summary of tables
Description: Other in vitro evaluations utilized a broth tube analysis of representative anticaries aldehydes incorporated in the vehicles of this invention against cultures of acid producing microorganisms normally present in the mouth. Standard laboratory procedures were utilized throughout to evaluate the acid production inhibition and growth inhibition over the incubation time of up to 24 hours.

[2] = system: Lactobacillus casei ATCC 4646; assay: Growth inhibition by aldehydes in product vehicles, pour-plate technique; type: cell-based; conditions: 1 to 5 percent aldehyde
In short: (§1)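 Aldehydes (1 to 5 percent by weight) were formulated into syrups, candies, mouthwash, toothpaste or toothpowder, added directly or as aqueous extracts to medium without a carbon source mixed 1:1 with filter-sterilized human saliva. Sugar came from the product or added sucrose. Growth over up to 24 hours was read by pour-plate count.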

[3] = system: Mixed human oral microorganisms; assay: as above; type: cell-based; conditions: 1 to 5 percent aldehyde
In short: as §1

[4] = In vivo caries evaluation, albino hamster; conditions: Table I, 56 days
Description: (§2) Standard laboratory techniques were used to complie the data presented. In each case the aldehyde was incorporated into each specimen's food in a one percent, by weight, quantity, over a period of several weeks. In all cases, caries reduction was noted.
(§3) The aldehydes tested in vivo were pyruvaldehyde, d,1-glyceraldehyde, crystalline dimer, glycolaldehyde, octanaldehyde, nonanaldehyde, decanaldehyde, undecylenic aldehyde, and lauric aldehyde. The polyaldehydes tested were dialdehyde starch, dialdehyde starch 50 percent oxidized, dialdehyde starch 90 percent oxidized, and dialdehyde galactomannan gum.
(§4) ^(a) Agents were incorporated in the diet at a 1 percent level.

[5] = system: Mixed Oral Microorganisms; assay: Acid production inhibition, broth-tube technique; conditions: single agent
Description: The data was compiled through well-known broth tube analysis techniques.
(a)Measured by broth-tube technique.

[6] = system: Streptococcus spp. FA-1; assay: Growth inhibition of oral microorganisms in vitro, pour plates; type: cell-based; conditions: Table IX
Description: (§5) (a)Determined on freshly grown pure cultures. Pour plates were incubated

[7] = system: L. casei; assay: as above; type: cell-based, Lactobacillus casei; conditions: Table IX
Description: as §5

[8] = system: Lactobacillus casei and Streptococcus sp. FA-1; assay: Acid-production inhibition by broth-tube assay, 0.1 percent of compound; type: cell-based; conditions: Table X; 0.1 percent of compound; read-out: Activity, Acid-Production Inhibition%
Description: ^(a) Activity was measured by broth-tube assay to determine percent
(§6) acid-production inhibition obtained by Lactobacillus casei and
Streptococcus sp. FA-1 in the presence of 0.1 percent of compound.
^(a) Activity was measured by broth-tube assay to determine percent o
as §6
Streptococcus sp. FA-1 in the presence of 0.1% of compound. Symbols

[9] = In vivo caries evaluation, Osborne-Mendel strain 2 rat; design: species or system rat (Osborne-Mendel strain 2); conditions: Table I, 90 days
Description: as §2, §3, §4

[10] = in compressed candy tablet, 2 h incubation
[11] = in compressed candy tablet, 5 h incubation
[12] = in compressed candy tablet, 24 h incubation
[13] = in dextrose syrup, 2 h incubation
[14] = in dextrose syrup, 5 h incubation
[15] = in dextrose syrup, 24 h incubation
[16] = in sucrose syrup, 2 h incubation
[17] = in sucrose syrup, 5 h incubation
[18] = in sucrose syrup, 24 h incubation
[19] = in tooth powder (aqueous extract), 2 h incubation
[20] = in tooth powder (aqueous extract), 5 h incubation
[21] = in tooth powder (aqueous extract), 24 h incubation
[22] = in toothpaste (aqueous extract), 2 h incubation
[23] = in toothpaste (aqueous extract), 5 h incubation
[24] = in toothpaste (aqueous extract), 24 h incubation
[25] = Student's test, 95 percent confidence limit
[26] = pour plates incubated 48 - 72 hours

Compound: O=C[C@H](O)CO (racemic) [d,1-Glyceraldehyde]
- Acid Production Inhibition [1]: excellent acid production inhibition
- Growth Inhibition [2, 10]: N.S.
- Growth Inhibition [2, 11]: N.S.
- Growth Inhibition [2, 12]: 100 Per Cent
- Growth Inhibition [2, 13]: N.S.
- Growth Inhibition [2, 14]: N.S.
- Growth Inhibition [2, 15]: > 99.99 Per Cent
- Growth Inhibition [2, 16]: 0 Per cent
- Growth Inhibition [2, 17]: N.S.
- Growth Inhibition [2, 18]: 99 Per cent
- Growth Inhibition [2, 19]: N.S.
- Growth Inhibition [2, 20]: N.S.
- Growth Inhibition [2, 21]: 99.3 Per cent
- Growth Inhibition [2, 22]: N.S.
- Growth Inhibition [2, 23]: N.S.
- Growth Inhibition [2, 24]: 100 Per cent
- Growth Inhibition [3, 10]: 99.7 Per Cent
- Growth Inhibition [3, 11]: 99.99 Per Cent
- Growth Inhibition [3, 12]: N.S.
- Growth Inhibition [3, 13]: 97.5 Per Cent
- Growth Inhibition [3, 14]: > 99.99 Per Cent
- Growth Inhibition [3, 15]: 0 Per Cent
- Growth Inhibition ([3]; in mouthwash, 2 h incubation): 95.0 Per cent
- Growth Inhibition ([3]; in mouthwash, 5 h incubation): 99.98 Per cent
- Growth Inhibition ([3]; in mouthwash, 24 h incubation): N.S.
- Growth Inhibition [3, 16]: 96 Per cent
- Growth Inhibition [3, 17]: 99.6 Per cent
- Growth Inhibition [3, 18]: 0 Per cent
- Growth Inhibition [3, 19]: N.S.
- Growth Inhibition [3, 20]: 99.3 Per cent
- Growth Inhibition [3, 21]: N.S.
- Growth Inhibition [3, 22]: 97 Per cent
- Growth Inhibition [3, 23]: N.S.
- Growth Inhibition [3, 24]: 100 Per cent
- Caries Score, Mean Incidence ([4]; 1 percent in diet, L-2000 control 27.5): 8.0
- Caries Score, Mean Extent ([4]; 1 percent in diet, L-2000 control 80.9): 21.8
- Caries Extent Reduction, statistical evaluation [4, 25]: Significant
- Caries Incidence Reduction, statistical evaluation [4, 25]: Significant
- Acid Production Inhibition ([5]; 0.03 percent): 7%
- Acid Production Inhibition ([5]; 0.04 percent): 12%
- Acid Production Inhibition ([5]; 0.05 percent): 19%
- Acid Production Inhibition ([5]; 0.06 percent): 30%
- Acid Production Inhibition ([5]; 0.07 percent): 40%

Compound: CCCCCCCCCC=O [Decanaldehyde]
- Bacterial Population, Experimental ([6]; control 2 × 10^8 to 5 × 10^8): 0
- Inhibition (growth) [6, 26]: 100%
- Growth Inhibition [2, 10]: 99.98 Per Cent
- Growth Inhibition [2, 11]: 100 Per Cent
- Growth Inhibition [2, 12]: 100 Per Cent
- Growth Inhibition [2, 13]: 99.7 Per Cent
- Growth Inhibition [2, 14]: 100 Per Cent
- Growth Inhibition [2, 15]: 100 Per Cent
- Growth Inhibition [2, 16]: 99.5 Per cent
- Growth Inhibition [2, 17]: > 99.9 Per cent
- Growth Inhibition [2, 18]: > 99.99 Per cent
- Growth Inhibition [2, 22]: 0 Per cent
- Growth Inhibition [2, 23]: N.S.
- Growth Inhibition [2, 24]: 0 Per cent
- Growth Inhibition [3, 10]: > 99.99 Per Cent
- Growth Inhibition [3, 11]: > 99.99 Per Cent
- Growth Inhibition [3, 12]: 100 Per Cent
- Growth Inhibition [3, 13]: > 99.99 Per Cent
- Growth Inhibition [3, 14]: 100 Per Cent
- Growth Inhibition [3, 15]: 100 Per Cent
- Growth Inhibition [3, 16]: > 99.99 Per cent
- Growth Inhibition [3, 17]: > 99.99 Per cent
- Growth Inhibition [3, 18]: N.S.
- Growth Inhibition [3, 22]: N.S.
- Growth Inhibition [3, 23]: N.S.
- Growth Inhibition [3, 24]: 0 Per cent
- Bacterial Population, Experimental ([7]; control 8 × 10^8 to 1 × 10^9): 4 × 10^2
- Inhibition (growth) [7, 26]: > 99.99%
- inhibition at 0.1 % [8]: 99 to 100%

Compound: O=CCO [Glycolaldehyde]
- Acid Production Inhibition [1]: excellent acid production inhibition
- Growth Inhibition [2, 10]: N.S.
- Growth Inhibition [2, 11]: 97.3 Per Cent
- Growth Inhibition [2, 12]: 100 Per Cent
- Growth Inhibition [2, 13]: N.S.
- Growth Inhibition [2, 14]: 98 Per Cent
- Growth Inhibition [2, 15]: 100 Per Cent
- Growth Inhibition [2, 16]: N.S.
- Growth Inhibition [2, 17]: 93 Per cent
- Growth Inhibition [2, 18]: > 99.99 Per cent
- Growth Inhibition [2, 19]: N.S.
- Growth Inhibition [2, 20]: N.S.
- Growth Inhibition [2, 21]: 99.99 Per cent
- Growth Inhibition [2, 22]: 0 Per cent
- Growth Inhibition [2, 23]: N.S.
- Growth Inhibition [2, 24]: 100 Per cent
- Growth Inhibition [3, 10]: 99.3 Per Cent
- Growth Inhibition [3, 11]: 100 Per Cent
- Growth Inhibition [3, 12]: 100 Per Cent
- Growth Inhibition [3, 13]: 99 Per Cent
- Growth Inhibition [3, 14]: 100 Per Cent
- Growth Inhibition [3, 15]: 91.4 Per Cent
- Growth Inhibition ([3]; in mouthwash, 2 h incubation): 99.7 Per cent
- Growth Inhibition ([3]; in mouthwash, 5 h incubation): 100 Per cent
- Growth Inhibition ([3]; in mouthwash, 24 h incubation): 99.90 Per cent
- Growth Inhibition [3, 16]: 98 Per cent
- Growth Inhibition [3, 17]: > 99.99 Per cent
- Growth Inhibition [3, 18]: > 99 Per cent
- Growth Inhibition [3, 19]: N.S.
- Growth Inhibition [3, 20]: 99.97 Per cent
- Growth Inhibition [3, 21]: 100 Per cent
- Growth Inhibition [3, 22]: N.S.
- Growth Inhibition [3, 23]: N.S.
- Growth Inhibition [3, 24]: 100 Per cent
- Caries Extent Reduction, statistical evaluation [9, 25]: Significant

Compound: CC(=O)C=O [Pyruvaldehyde]
- Acid Production Inhibition [1]: excellent acid production inhibition
- Growth Inhibition [2, 10]: 99.5 Per Cent
- Growth Inhibition [2, 11]: 100 Per Cent
- Growth Inhibition [2, 12]: 100 Per Cent
- Growth Inhibition [2, 13]: 99.4 Per Cent
- Growth Inhibition [2, 14]: 99.99 Per Cent
- Growth Inhibition [2, 15]: 100 Per Cent
- Growth Inhibition ([2]; in hard candy, 2 h incubation): 92 Per Cent
- Growth Inhibition ([2]; in hard candy, 5 h incubation): 99.85 Per Cent
- Growth Inhibition ([2]; in hard candy, 24 h incubation): 100 Per Cent
- Growth Inhibition [2, 16]: 97.5 Per cent
- Growth Inhibition [2, 17]: > 99.99 Per cent
- Growth Inhibition [2, 18]: > 99.99 Per cent
- Growth Inhibition [2, 19]: N.S.
- Growth Inhibition [2, 20]: 98 Per cent
- Growth Inhibition [2, 21]: 100 Per cent
- Growth Inhibition [2, 22]: N.S.
- Growth Inhibition [2, 23]: N.S.
- Growth Inhibition [2, 24]: 100 Per cent
- Growth Inhibition [3, 10]: 99.7 Per Cent
- Growth Inhibition [3, 11]: 99.99 Per Cent
- Growth Inhibition [3, 12]: 99.98 Per Cent
- Growth Inhibition [3, 13]: 99.8 Per Cent
- Growth Inhibition [3, 14]: 100 Per Cent
- Growth Inhibition [3, 15]: 99.99 Per Cent
- Growth Inhibition ([3]; in hard candy, 2 h incubation): 99.5 Per Cent
- Growth Inhibition ([3]; in hard candy, 5 h incubation): 100 Per Cent
- Growth Inhibition ([3]; in hard candy, 24 h incubation): N.S.
- Growth Inhibition ([3]; in mouthwash, 2 h incubation): 99.0 Per cent
- Growth Inhibition ([3]; in mouthwash, 5 h incubation): 100 Per cent
- Growth Inhibition ([3]; in mouthwash, 24 h incubation): 99.7 Per cent
- Growth Inhibition [3, 16]: > 99.9 Per cent
- Growth Inhibition [3, 17]: > 99.99 Per cent
- Growth Inhibition [3, 18]: N.S.
- Growth Inhibition [3, 19]: N.S.
- Growth Inhibition [3, 20]: 99.99 Per cent
- Growth Inhibition [3, 21]: 99.94 Per cent
- Growth Inhibition [3, 22]: 100 Per cent
- Growth Inhibition [3, 23]: N.S.
- Growth Inhibition [3, 24]: 100 Per cent
- Caries Score, Mean Incidence ([9]; 1 percent in diet, L-2000 control 15.08 (pyruvaldehyde test), 13.94 (glycolaldehyde test)): 5.95
- Caries Score, Mean Extent ([9]; 1 percent in diet, L-2000 control 38.80 (pyruvaldehyde test), 35.38 (glycolaldehyde test)): 14.55
- Caries Extent Reduction, statistical evaluation [9, 25]: Significant
- Caries Incidence Reduction, statistical evaluation [9, 25]: Significant
- Solubility: water soluble
- Acid Production Inhibition ([5]; 0.005 percent): 5%
- Acid Production Inhibition ([5]; 0.007 percent): 5%
- Acid Production Inhibition ([5]; 0.009 percent): 7%
- Acid Production Inhibition ([5]; 0.011 percent): 7%
